According to patent US5726325A, “Tricyclic compounds” (Kyowa Hakko Kogyo Co., Ltd., priority 1995, dated 1998):

What was measured:
detrusor muscle [1] = assay: Test Example 2: relaxation of guinea pig bladder strips, rhythmical contraction induced by 15 mM KCl; format: cell-based, guinea pig (male albino Hartley); conditions: Cavia porcellus, concentration decreasing detrusor contraction by 50%
Text: (§1) The activity of Compound (I) as a smooth muscle relaxant which is useful as a therapeutic agent for urinary incontinence can be observed, for example, using the following tests. In the following Test Examples 1 and 2, "IC50 " means the concentration of a test compound which induces the decrease in the contraction of detrusor muscle by 50%.
(§2) Male albino Hartley guinea pigs (350-550 g) were used as test animals. Each animal was exsanguinated to death under pentobarbital sodium anesthesia. The lower abdominal cavity was opened and its bladder was positioned. The connective tissue and the fat tissue around the bladder were removed, and the bladder was cleaned. After two pelvic nerves on the surface of the abdominal side of the bladder were dissected, the bladder was taken out on the entrance of ureter. The bladder was washed with a Krebs-Henseleit buffer [composition (mM): NaCl 118, KCl 4.7, MgSO4 1.2, KH2 PO4 1.2, CaCl2 2.5, NaHCO3 25, and D-glucose 11.1], and then put on a gauze patch soaked in the buffer in a Petri dish. The dome and the trigone of the bladder were dissected and discarded. The back of the bladder was cut vertically in the middle with scissors, and the bladder was put flat on the gauze patch. The dome tip and the side of the trigone of the bladder were dissected and discarded, and the mucosa of the bladder was removed. The back of the bladder was cut vertically to get 6 strips which are ca. 2.0 mm wide and ca. 10 mm long.
(§3) One end of each strip was fixed on a plastic supporter rod, and the other end was fixed on a clip connected to a suture thread. The supporter was fixed in 20 ml of an organ bath and the suture thread connected to the clip was fixed on a force-displacement transducer (NIHON KODEN TB-611T). The tissue was suspended in a Krebs-Henseleit buffer, and the bath solution was warmed to 37° C. and bubbled with a gas mixture of 5% CO2 and 95% O2. The pH of the solution was adjusted to about 7.4. The transducer was connected to a polygraph (NIHON KODEN AP-621G), and the change of tension was recorded on a recorder (YOKOGAWA type 3066). The polygraph was graduated by 0.5 g/cm.
The effect of a smooth muscle relaxant varies with the concentration of KCl based on the difference of an action mechanism. In the following Test Example, KCl was used at a concentration different from that in Test Example 1.
A sample of the excised bladder was prepared in the same manner as in Test Example 1, and the tension of the preparation was measured. After the tension of the tissue was adjusted to be a steady state at 1 g, 15 mM KCl was applied. After the rhythmical contraction was confirmed to appear by KCl, the tissue was washed. Then, 15 mM KCl was applied again. After the rhythmical contraction took place constantly and the tissue reached the steady state, a test compound was applied by the cumulative method (half-logarithmic incremence). The contact time at each concentration was 30 minutes. The activity of the compound was expressed as the maximum relaxation rate (%) of the tension induced by the agonist.

bladder = assay: Test Example 4: micturition contraction interval in rats under partial restraint, oral; format: in vivo, rat (male SD strain); conditions: Rattus norvegicus, pre-administration = 100; for response vs control in vivo at 1 mg/kg: 1.0 mg/kg oral, second part of Table 4; for response vs control in vivo at 0.1 mg/kg: 0.1 mg/kg oral
Text: As a control compound, cromakalim was used.

detrusor muscle [2] = assay: Test Example 1: relaxation of guinea pig bladder strips contracted with 50 mM KCl; format: cell-based, guinea pig (male albino Hartley); conditions: Cavia porcellus; contraction induced by 50 mM KCl; concentration decreasing detrusor contraction by 50%
Text: as §1, §2, §3
After the tissue was incubated in the buffer for 15 minutes without preloading, tension was added thereto for about one hour. The preloading tension added was 1.5 g and it was relaxed to about 1 g. The tissue was washed at intervals of 15 minutes and the tension was adjusted to 1.5 g just before washing. The tension of the tissue was adjusted to be a steady state at 1 g. After this equilibrium time, 50 mM KCl (the whole content in the bath) was added, and the tissue was washed 10 minutes later. KCl was added to the tissue at intervals of 30 minutes, followed by washing 10 minutes later, and KCl was applied repeatedly until the developed tension induced by KCl becomes constant. When the tissue was confirmed to contract constantly by the application of KCl and relax to the steady state after washing, 50 mM KCl was applied again. After the tissue reached the steady state and the base line was obtained, a test compound was applied by the cumulative method (half-logarithmic incremence). The contact time at each concentration was 30 minutes. The activity of the compound was expressed as the maximum relaxation rate (%) of the tension induced by the agonist.

| Compound | IC50 (detrusor muscle [1]) [µM] | response vs control in vivo at 1 mg/kg (bladder; 1 hr after administration) [%] | response vs control in vivo at 1 mg/kg (bladder; 2 hr after administration) [%] | response vs control in vivo at 1 mg/kg (bladder; 3 hr after administration) [%] | response vs control in vivo at 1 mg/kg (bladder; 4 hr after administration) [%] | response vs control in vivo at 1 mg/kg (bladder; 5 hr after administration) [%] | IC50 (detrusor muscle [2]) [µM] | response vs control in vivo at 0.1 mg/kg (bladder; 1 hr after administration) [%] | response vs control in vivo at 0.1 mg/kg (bladder; 2 hr after administration) [%] | response vs control in vivo at 0.1 mg/kg (bladder; 3 hr after administration) [%] | response vs control in vivo at 0.1 mg/kg (bladder; 4 hr after administration) [%] | response vs control in vivo at 0.1 mg/kg (bladder; 5 hr after administration) [%] |
| --- | --- | --- | --- | --- | --- | --- | --- | --- | --- | --- | --- | --- |
| CC(O)(C(=O)Nc1ccc2c(c1)OCc1ccccc1C2=O)C(F)(F)F (stereo not drawn) [Compound 2, 3-(3,3,3-Trifluoro-2-hydroxy-2-methylpropanoylamino)-6,11-dihydrodibenz[b,e]oxepin-11-one] | 3.4 | 121 ± 6.2 | 135 ± 12.3 | 144 ± 16.3 | 141 ± 15.6 | 145 ± 16 | 3.6 |  |  |  |  |  |
| CC(O)(C(=O)Nc1ccc2c(c1)C(=O)c1ccccc1-2)C(F)(F)F (stereo not drawn) [Compound 5, 2-(3,3,3-Trifluoro-2-hydroxy-2-methylpropanoylamino)fluoren-9-one] | 2.1 | 112 ± 7 | 136 ± 16.5 | 137 ± 14.5 | 132 ± 9.5 | 131 ± 17.7 | 8 |  |  |  |  |  |
| CC(O)(C(=O)Nc1ccc2c(c1)OCc1ccsc1C2=O)C(F)(F)F (stereo not drawn) [Compound 8, 7-(3,3,3-Trifluoro-2-hydroxy-2-methylpropanoylamino)-4,10-dihydrothieno[3,2-c][1]benzoxepin-10-one] | 0.5 | 130 ± 9.3 | 142 ± 12.6 | 144 ± 8.8 | 162 ± 14.6 | 189 ± 19.6 | 5.2 |  |  |  |  |  |
| CC(O)(C(=O)Nc1cccc2c1C(=O)c1ccoc1CO2)C(F)(F)F (stereo not drawn) [Compound 9, 5-(3,3,3-Trifluoro-2-hydroxy-2-methylpropanoylamino)-4,10-dihydrofuro[2,3-c][1]benzoxepin-4-one] | 4.6 | 123 ± 6.8 | 131 ± 9.3 | 133 ± 9.1 | 145 ± 10 | 155 ± 12.2 | 4.3 |  |  |  |  |  |
| CC(O)(C(=O)Nc1ccc2c(c1)OCc1occc1C2=O)C(F)(F)F (stereo not drawn) [Compound 10, 7-(3,3,3-Trifluoro-2-hydroxy-2-methylpropanoylamino)-4,10-dihydrofuro[2,3-c][1]benzoxepin-4-one] | 1.9 | 132 ± 11.2 | 142 ± 17.5 | 158 ± 22.3 | 174 ± 29.9 | 183 ± 42.7 | 10 |  |  |  |  |  |
| CC(O)(C(=O)Nc1cccc2c1C(=O)c1occc1CO2)C(F)(F)F (stereo not drawn) [Compound 15, 9-(3,3,3-Trifluoro-2-hydroxy-2-methylpropanoylamino)-4,10-dihydrofuro[3,2-c][1]benzoxepin-10-one] | 9.4 | 130 ± 9.5 | 128 ± 5.3 | 107 ± 16.5 | 121 ± 11.4 | 135 ± 12.6 | 7.1 |  |  |  |  |  |
| CC(O)(C(=O)Nc1ccc2c(c1)C(=O)c1sccc1CO2)C(F)(F)F (stereo not drawn) [Compound 16, 8-(3,3,3-Trifluoro-2-hydroxy-2-methylpropanoylamino)-4,10-dihydrothieno[3,2-c][1]benzoxepin-10-one] | 1.4 | 118 ± 7.9 | 132 ± 14.2 | 119 ± 9.8 | 127 ± 7.1 | 137 ± 12.6 | > 10 |  |  |  |  |  |
| CC(O)(C(=O)Nc1cccc2c1C(=O)c1cccc(F)c1CO2)C(F)(F)F (stereo not drawn) [Compound 20, 7-Fluoro-1-(3,3,3-trifluoro-2-hydroxy-2-methylpropanoylamino)-6,11-dihydrodibenz[b,e]oxepin-11-one] | 6 | 121 ± 3.9 | 147 ± 9.9 | 148 ± 20 | 156 ± 19.6 | 142 ± 15.8 | 2.3 |  |  |  |  |  |
| C[C@](O)(C(=O)Nc1cccc2c1C(=O)c1sccc1CO2)C(F)(F)F [Compound 33, (S)-9-(3,3,3-trifluoro-2-hydroxy-2-methylpropanoylamino)-4,10-dihydrothieno[3,2-c][1]benzoxepin-10-one] | 2.7 |  |  |  |  |  | 1.1 | 135 ± 21.7 | 146 ± 25.5 | 143 ± 24.4 | 156 ± 30.6 | 161 ± 37.4 |
| C[C@](O)(C(=O)Nc1cccc2c1C(=O)c1ccoc1CO2)C(F)(F)F [Compound 35, (S)-5-(3,3,3-Trifluoro-2-hydroxy-2-methylpropanoylamino)-4,10-dihydrofuro[2,3-c][1]benzoxepin-4-one] | 1 | 123 ± 8.8 | 124 ± 5.7 | 131 ± 9.8 | 138 ± 11 | 144 ± 8.9 | 31 |  |  |  |  |  |
| C[C@](O)(C(=O)Nc1ccc2c(c1)OCc1occc1C2=O)C(F)(F)F [Compound 37, (S)-7-(3,3,3-Trifluoro-2-hydroxy-2-methylpropanoylamino)-4,10-dihydrofuro[2,3-c][1]benzoxepin-4-one] | 0.2 | 114 ± 10.7 | 128 ± 6.5 | 126 ± 6.5 | 140 ± 10.2 | 144 ± 11.1 | 4.3 |  |  |  |  |  |
| CC(O)(C(=O)Nc1ccc2c(c1)C(=O)c1ccccc1CC2)C(F)(F)F (stereo not drawn) [Compound 53, 3-(3,3,3-Trifluoro-2-hydroxy-2-methylpropanoylamino)-10,11-dihydro-5H-dibenzo[a,d]cyclohepten-5-one] | 2.9 | 108 ± 9.7 | 134 ± 12 | 148 ± 14 | 155 ± 11.9 | 168 ± 11.8 | > 10 |  |  |  |  |  |
